#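 Protocol summary: plate cells (96-well), add compound at 5 concentrations, incubate 48 h, interpolate endpoints linearly. Definition used: TGI = concentration required for complete inhibition of growth.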 Where a SMILES comes first, the peptide text is derived from it.
# What was measured:
# Experiment in all cases: NCI tumour cell line growth inhibition, 48 h
# HOP-18 NSCLC = tested on: HOP-18 NSCLC
# KM20L2 colon = tested on: KM20L2 colon
# DMS 114 small cell lung = tested on: DMS 114 small cell lung
# LXFL 529 NSCLC = tested on: LXFL 529 NSCLC
# RXF-631 renal = tested on: RXF-631 renal
# DMS 273 small cell lung = tested on: DMS 273 small cell lung
# M19-MEL melanoma = tested on: M19-MEL melanoma
# XF 498 CNS = tested on: XF 498 CNS
# P388 leukemia = tested on: P388 leukemia
# SN12K1 renal = tested on: SN12K1 renal
# P388/ADR leukemia = tested on: P388/ADR leukemia
Structure (SMILES),TGI (HOP-18 NSCLC),TGI (KM20L2 colon),TGI (DMS 114 small cell lung),TGI (LXFL 529 NSCLC),TGI (RXF-631 renal),TGI (DMS 273 small cell lung),TGI (M19-MEL melanoma),TGI (XF 498 CNS),TGI (P388 leukemia),TGI (SN12K1 renal),TGI (P388/ADR leukemia)
NC(N)=NCCCC(N=c1c2ccccc2n(O)c2ccccc12)C(=O)O (centres undefined),> 100 µM,> 100 µM,> 100 µM,> 100 µM,> 100 µM,> 100 µM,> 100 µM,,,,
CCCCCC(CN1CCOCC1)C(=O)/C=C/c1ccccc1 (centres undefined),,10.9 µM,5.17 µM,,,6.1 µM,7.05 µM,3.29 µM,,,
CC1=C2C(O)C(C(C)C(=O)NCC(C)C)CCC2(C)C=CC1=O (centres undefined),> 100 µM,> 100 µM,> 100 µM,,,> 100 µM,> 100 µM,> 100 µM,> 100 µM,> 100 µM,> 100 µM
CC1NC(=O)CNC(=O)CNC(=O)C(Cc2ccc(O)cc2)NC(=O)C(C(C)C)NC(=O)C(C)NC1=O (centres undefined) (cyclo(GGAAVY); configuration not given here),> 100 µM,,> 100 µM,,,> 100 µM,> 100 µM,> 100 µM,> 100 µM,> 100 µM,> 100 µM
CN(C)c1nc(N(C)C)nc(N(C)C)n1,87.3 µM,> 150 µM,> 150 µM,> 150 µM,,> 147 µM,> 148 µM,> 116 µM,> 150 µM,> 150 µM,> 136 µM
